Test results from publication PMC12527922, “Cocaine chemogenetics blunts drug-seeking by synthetic physiology” (Nature, 2025).
Several values for one entry are separate records, joined by “and”; a condition that tells them apart may be missing. Equal entries are not always repeated. Where two headings read alike, the source gives them in different places.

Key:
unmodified α7–5HT3 = biological target: T1, unmodified α7–5HT3 (UniProt P23979+P36544, M226I/T225I); experiment: Membrane potential assay, unmodified α7–5HT3; type: cell-based, human α7 nAChR LBD, mouse 5HT3 IPD; conditions: a7-5Ht3; for Max normalized AVG: AVG of DR 1-3; for Max normalized, single replicate: relative to ACh max of the DR
T1 construct: expressed in transfected cells; host or cells: HEK293 (ATCC CRL-1573), pcDNA3.1
T1 sequence (P36544+P23979 fused P36544:T225I/P36544:M226I): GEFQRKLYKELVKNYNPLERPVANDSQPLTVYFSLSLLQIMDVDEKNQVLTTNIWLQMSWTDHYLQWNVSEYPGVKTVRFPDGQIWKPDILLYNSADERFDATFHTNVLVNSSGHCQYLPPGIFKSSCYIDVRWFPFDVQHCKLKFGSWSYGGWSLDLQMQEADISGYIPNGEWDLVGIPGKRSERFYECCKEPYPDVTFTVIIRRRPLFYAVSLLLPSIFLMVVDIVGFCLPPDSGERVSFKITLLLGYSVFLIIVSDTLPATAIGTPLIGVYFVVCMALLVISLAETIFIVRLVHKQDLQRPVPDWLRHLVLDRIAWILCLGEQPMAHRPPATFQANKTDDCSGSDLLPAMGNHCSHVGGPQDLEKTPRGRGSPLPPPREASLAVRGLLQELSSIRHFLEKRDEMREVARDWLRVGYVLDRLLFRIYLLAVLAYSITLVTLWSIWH

unmodified α7–GlyR = biological target: T2, unmodified α7–GlyR (Homo sapiens, UniProt P23415+P36544); experiment: Membrane potential assay, unmodified α7–GlyR; type: cell-based; conditions: a7-GlyR; for Max normalized AVG: AVG of DR 1-3
T2 construct: expressed in transfected cells; host or cells: HEK293 (ATCC CRL-1573), pcDNA3.1
T2 sequence (P36544+P23415 fused): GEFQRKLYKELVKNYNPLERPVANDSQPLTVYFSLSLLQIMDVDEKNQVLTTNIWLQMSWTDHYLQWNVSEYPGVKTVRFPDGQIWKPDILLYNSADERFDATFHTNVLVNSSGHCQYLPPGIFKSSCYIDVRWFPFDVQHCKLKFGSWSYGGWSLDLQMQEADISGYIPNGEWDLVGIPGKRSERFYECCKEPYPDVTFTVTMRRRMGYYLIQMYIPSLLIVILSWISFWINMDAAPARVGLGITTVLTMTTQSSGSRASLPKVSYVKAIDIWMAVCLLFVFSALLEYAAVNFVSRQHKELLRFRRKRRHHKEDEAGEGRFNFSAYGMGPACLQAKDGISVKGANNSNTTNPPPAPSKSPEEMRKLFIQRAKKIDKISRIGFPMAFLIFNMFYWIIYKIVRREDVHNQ

[1] = system: α7–5HT3 mutant chimeric channels; experiment: cell-based; type: cell-based, human α7 nAChR LBD, mouse 5HT3 IPD; conditions: for EC50: sheet 1e
[2] = biological target: T3, coca-GlyR (α7(L141G,G175K,Y217F)–GlyR) (Homo sapiens, UniProt P23415+P36544, G175K/L141G/Y217F); experiment: Membrane potential assay, coca-GlyR in HEK293; type: cell-based; conditions: coca-GlyR; for Max normalized AVG: AVG of DRs
T3 construct: expressed in transfected cells; host or cells: HEK293 (ATCC CRL-1573), pcDNA3.1
T3 sequence (P36544+P23415 fused P36544:L141G/P36544:G175K/P36544:Y217F): as the sequence (P36544+P23415 fused) above, with L119G, G153K, Y195F counted along it

coca-5HT3 = experiment: Whole-cell voltage-clamp in HEK293 cells, coca-5HT3; type: cell-based, human α7 nAChR LBD, mouse 5HT3 IPD
Method: Channel mutants and agonists were further characterized in whole-cell voltage-clamp experiments performed on HEK293 cells. At passage 44–48, cells were plated at low density (1 × 10^3 per cm^2) on poly-D-lysine-coated glass coverslips, then transfected in 10 cm^2 wells using the Fugene 6 transfection reagent (Roche) with DNA plasmids containing both an ion channel cDNA (pcDNA3.1, 2 µg per well) and cDNA for GFP (pCMV, 0.1 μg per well), followed by replacement of the medium after 3 h. Recordings were made 24–72 h after transfection.
Electrophysiological recordings were performed in whole-cell voltage-clamp mode, on an inverted fluorescence microscope (Olympus IX-51) using pClamp software and a […] amplifier (Molecular Devices). Electrophysiological data was filtered at 4 kHz, digitized at 10 kHz using a Digidata 1400 interface (Molecular Devices), recorded on a PC (Dell) and analysed using custom MATLAB software (MathWorks). Solutions were delivered from a gravity fed perfusion system through a capillary tube placed approximately […] from the recorded cell using an eight-way manifold pinch valve system (Nanion), which was controlled from the acquisition software. This allowed for up to seven concentrations of agonist to be tested. […]

[3] = screen of chimeric α7–5HT3 and α7–GlyR single LBD mutants (Fig. 1d)

CC(=O)OCC[N+](C)(C)C [ACh, acetylcholine]
DR response, single replicate (unmodified α7–5HT3; concentration 0.0457247): 0.056 and 0.121 and 0.112 | Max normalized AVG (unmodified α7–5HT3; concentration 0.0457247): 0.09523 | Max normalized, single replicate (unmodified α7–5HT3; concentration 0.0457247): 0.1142 and 0.1039 and 0.06763 | DR response, single replicate (unmodified α7–5HT3; concentration 0.137174): 0.034 and 0.057 and 0.037 | Max normalized AVG (unmodified α7–5HT3; concentration 0.137174): 0.04305 | Max normalized, single replicate (unmodified α7–5HT3; concentration 0.137174): 0.05377 and 0.03432 and 0.04106 | DR response, single replicate (unmodified α7–5HT3; concentration 0.411523): 0.071 and 0.056 and 0.06 | Max normalized AVG (unmodified α7–5HT3; concentration 0.411523): 0.06475 | Max normalized, single replicate (unmodified α7–5HT3; concentration 0.411523): 0.05283 and 0.05566 and 0.08575 | DR response, single replicate (unmodified α7–5HT3; concentration 1.23457): 0.065 and 0.06 and 0.083 | Max normalized AVG (unmodified α7–5HT3; concentration 1.23457): 0.0707 | Max normalized, single replicate (unmodified α7–5HT3; concentration 1.23457): 0.0566 and 0.07699 and 0.0785 | DR response, single replicate (unmodified α7–5HT3; concentration 3.7037): 0.161 and 0.213 and 0.204 | Max normalized AVG (unmodified α7–5HT3; concentration 3.7037): 0.1949 | Max normalized, single replicate (unmodified α7–5HT3; concentration 3.7037): 0.2009 and 0.1892 and 0.1944 | DR response, single replicate (unmodified α7–5HT3; concentration 11.1111): 0.486 and 0.61 and 0.657 | Max normalized AVG (unmodified α7–5HT3; concentration 11.1111): 0.5906 | Max normalized, single replicate (unmodified α7–5HT3; concentration 11.1111): 0.5755 and 0.6095 and 0.587 | DR response, single replicate (unmodified α7–5HT3; concentration 33.3333): 0.828 and 1.06 and 1.078 | Max normalized AVG (unmodified α7–5HT3; concentration 33.3333): 1 | Max normalized, single replicate (unmodified α7–5HT3; concentration 33.3333): 1 | DR response, single replicate (unmodified α7–5HT3; concentration 100): 0.762 and 0.959 and 0.926 | Max normalized AVG (unmodified α7–5HT3; concentration 100): 0.8947 | Max normalized, single replicate (unmodified α7–5HT3; concentration 100): 0.9047 and 0.859 and 0.9203 | max (DR response of the replicate) (unmodified α7–5HT3; largest response of each DR): 0.828 and 1.06 and 1.078 | Max normalized, single replicate (unmodified α7–GlyR; [ACh] 0.0457247): 0.2482 and 0.1071 and 0.173 | Max normalized AVG (unmodified α7–GlyR; [ACh] 0.0457247): 0.1761 | Max normalized, single replicate (unmodified α7–GlyR; [ACh] 0.137174): […] | Max normalized AVG (unmodified α7–GlyR; [ACh] 0.137174): 0.1486 | Max normalized, single replicate (unmodified α7–GlyR; [ACh] 0.411523): 0.2506 and 0.0705 and 0.1596 | Max normalized AVG (unmodified α7–GlyR; [ACh] 0.411523): 0.1602 | Max normalized, single replicate (unmodified α7–GlyR; [ACh] 1.23457): 0.2787 and 0.09661 and 0.1213 | Max normalized AVG (unmodified α7–GlyR; [ACh] 1.23457): 0.1655 | Max normalized, single replicate (unmodified α7–GlyR; [ACh] 3.7037): 0.4426 and 0.3029 and 0.2921 | Max normalized AVG (unmodified α7–GlyR; [ACh] 3.7037): 0.3459 | Max normalized, single replicate (unmodified α7–GlyR; [ACh] 11.1111): 0.8337 and 0.671 and 0.6315 | Max normalized AVG (unmodified α7–GlyR; [ACh] 11.1111): 0.7121 | Max normalized, single replicate (unmodified α7–GlyR; [ACh] 33.3333): 0.9719 and 0.9347 and 0.9843 | Max normalized AVG (unmodified α7–GlyR; [ACh] 33.3333): 0.9636 | Max normalized, single replicate (unmodified α7–GlyR; [ACh] 100): 1 | Max normalized AVG (unmodified α7–GlyR; [ACh] 100): 1 | DR response, single replicate (unmodified α7–GlyR; concentration 0.0457247): 0.077 and 0.106 and 0.041 | DR response, single replicate (unmodified α7–GlyR; concentration 0.137174): 0.046 and 0.076 and 0.063 | DR response, single replicate (unmodified α7–GlyR; concentration 0.411523): 0.071 and 0.107 and 0.027 | DR response, single replicate (unmodified α7–GlyR; concentration 1.23457): 0.054 and 0.119 and 0.037 | DR response, single replicate (unmodified α7–GlyR; concentration 3.7037): 0.13 and 0.189 and 0.116 | DR response, single replicate (unmodified α7–GlyR; concentration 11.1111): 0.281 and 0.356 and 0.257 | DR response, single replicate (unmodified α7–GlyR; concentration 33.3333): 0.438 and 0.415 and 0.358 | DR response, single replicate (unmodified α7–GlyR; concentration 100): 0.445 and 0.427 and 0.383 | max (DR response of the replicate) (unmodified α7–GlyR; largest response of each DR): 0.445 and 0.427 and 0.383 | EC50 ([1]; read-out: EC50 at a75HT3 L141G G175K Y115F, AVG, AVG): […] | EC50 ([1]; read-out: EC50 at a75HT3 L141G G175K Y115F, single determinations): […] | EC50 ([1]; read-out: EC50 at a75HT3 L141G G175K Y210F, AVG, AVG): […] | EC50 ([1]; read-out: EC50 at a75HT3 L141G G175K Y217F, AVG, AVG): […] | EC50 ([1]; read-out: EC50 at a75HT3 L141G G175K, AVG, AVG): […] | EC50 ([1]; read-out: EC50 at a75HT3 L141G G175K, single determinations): […] | agonism at Leu141Gly or Leu141Ala mutant channels [1, 3]: […] | agonist activity at Trp77Phe and Leu131Asn mutant channels [1, 3]: […] | DR response, single replicate ([2]; [ACh] 1.37174): 0.018 and 0.006 and 0.023 and 0.1 and 0.117 and 0.055 and 0.048 and 0.049 | Max normalized, single replicate ([2]; [ACh] 1.37174): 0.004983 and 0.06336 and 0.1695 and 0.06161 and 0.07891 and 0.05993 and 0.05731 and 0.01172 | Max normalized AVG ([2]; [ACh] 1.37174): 0.06341 | DR response, single replicate ([2]; [ACh] 4.11523): 0.031 (2×) and 0.023 and 0.017 and 0.194 and 0.139 and 0.02 and 0.098 | Max normalized, single replicate ([2]; [ACh] 4.11523): 0.0191 and 0.04683 and 0.3288 and 0.0732 and 0.02869 and 0.0387 and 0.1146 and 0.02018 | Max normalized AVG ([2]; [ACh] 4.11523): 0.08377 | DR response, single replicate ([2]; [ACh] 12.3457): 0.127 and 0.17 and 0.031 and 0.325 and 0.191 and 0.086 and 0.042 and 0.079 | Max normalized, single replicate ([2]; [ACh] 12.3457): […] | Max normalized AVG ([2]; [ACh] 12.3457): 0.1536 | DR response, single replicate ([2]; [ACh] 37.037): 0.513 and 0.713 and 0.076 and 0.453 and 1.051 and 0.206 and 0.22 and 0.227 | Max normalized, single replicate ([2]; [ACh] 37.037): 0.5922 and 0.2094 and 0.7678 and 0.5534 and 0.2956 and 0.2747 and 0.2655 and 0.334 | Max normalized AVG ([2]; [ACh] 37.037): 0.4116 | DR response, single replicate ([2]; [ACh] 111.111): 1.218 and 1.065 and 0.222 and 0.557 and 1.552 and 0.373 and 0.414 and 0.475 | Max normalized, single replicate ([2]; [ACh] 111.111): […] | Max normalized AVG ([2]; [ACh] 111.111): 0.7072 | DR response, single replicate ([2]; [ACh] 333.333): […] | Max normalized, single replicate ([2]; [ACh] 333.333): 0.9626 and 0.9449 and 1 (5×) and 0.9414 | Max normalized AVG ([2]; [ACh] 333.333): 0.9811 | DR response, single replicate ([2]; [ACh] 1000): 1.536 and 1.204 and 0.363 and 0.524 and 0.67 and 0.657 and 0.77 | Max normalized, single replicate ([2]; [ACh] 1000): 1 (3×) and 0.8881 and 0.9613 and 0.8202 and 0.9006 | Max normalized AVG ([2]; [ACh] 1000): 0.9386 | DR response, single replicate ([2]; [ACh] 3000): 1.183 and 0.791 and 0.464 | Max normalized, single replicate ([2]; [ACh] 3000): 0.657 and 0.7864 and 0.7702 | Max normalized AVG ([2]; [ACh] 3000): 0.7379 | max (DR response of the replicate) ([2]; largest response of each DR): […] | currents from coca-5HT3 (coca-5HT3): shifted above physiological concentrations
